Results taken from patent publication US10556936B2, “Immunogenic proteins and fragments thereof from allergenic mites” (ALK-ABELLÓ A/S, priority 2016, dated 2020).

Test system: HDM-specific T cells expanded from PBMCs of HDM-allergic individuals
Assay: T cell reactivity of peptides: IFN/IL-5 ELISPOT on in vitro expanded HDM-specific T cells
Format: cell-based, human
Conditions: for SFC/donor: individual peptides 10 μg/mL; for % responder: percentage of donors that produced a response against the peptide, 10 μg/mL
Method: Each sequence of an “L” cluster was aligned separately using the MEGA software tool with ClustalW. Fifteen-mer peptides overlapping by 10 amino acids were generated and the last 15-mer peptide was added when the sequence length was not divisible by 5, 14,783 unique peptides remained.
HLA class II binding predictions optimized for global coverage were performed for the seven class II alleles (HLA-DRB1*03:01, HLA-DRB1*07:01, HLA-DRB1*15:01, HLA-DRB3*01:01, HLA-DRB3*02:02, HLA-DRB4*01:01 and HLA-DRB5*01:01) using the standalone version of the IEDB class II binding prediction tool. The median consensus percentile rank was estimated from the consensus percentile ranks for the seven alleles. Further, peptides with more than ten overlapping amino acids, which appeared because several occurrences of some sequence regions were repeated multiple times in the same sequence, were eliminated (e.g. “[…]” was repeated seven times in one sequence.) Variant peptides were also removed, retaining the better peptide based on the median consensus percentile rank and conservation among the sequences within its respective cluster. Peptides with median consensus percentile rank ≤10.0 and conserved in ≥35% of sequences in the same cluster were finally selected, also including additional selected peptides chosen to maximize DRB1 allele coverage, for a grand total of 2,589 peptides.
Peptides were purchased from Mimotopes (Clayton, Victoria, Australia) or A and A (San Diego, Calif.) as crude material on a small (1-mg) scale. Individual peptides were resuspended in DMSO at a final concentration of 40 mg/mL. Peptide “megapools” of 30-65 peptides/pool were generated. Following lyophilization, each pool was reconstituted in DMSO so that each peptide was present at a concentration of 4 mg/mL. To facilitate deconvolution of positive megapools, each megapool was further broken down in 2-6 “mesopools” (259 mesopools in total), each containing 8-14 peptides. Each mesopool was then deconvoluted to identify individual positive peptides. To avoid dimerization and polymerization of peptides by intra- and intermolecular disulfide bond formation between cysteine residues, this amino acid were in some instances substituted by a serine residue in the peptides. Such peptides are herein marked with an asterisk (*).
PBMCs from European HDM-allergic individuals were recruited in the Copenhagen region (defined by clinical history of allergy to house dust mite and specific IgE to group 1 and group 2 major allergens from Der p and/or Der f and with measured specific IgE (CAP) >0.7 kU/L towards Der p/f 1 or Der p/f 2. In addition, PBMCs from 10 US HDM-allergic individuals were recruited in San Diego (defined by Der p extract IgE titers greater than 0.35 kUA/L). PBMCs were isolated from whole blood by density gradient centrifugation according to manufacturers' instructions (Ficoll-Hypaque, Amersham Biosciences, Uppsala, Sweden). Der p- and Der f-specific extract IgE titers were determined using the ImmunoCAP system (Thermo Fisher, Uppsala, Sweden). In a separate series of experiments, pooled plasma from 10 European and 10 American HDM atopic individuals from the San Diego region, respectively, was utilized to run 2D immunoblots to elucidate IgE and IgG reactivity towards the proteins, which had at least one peptide with positive T cell response.
HDM-specific T cells were expanded in vitro. Briefly, PBMCs from HDM-allergic individuals were stimulated with HDM extract (5 μg/mL) and expanded over 14-17 days with IL-2 (added every 3 days). Cells were harvested on day 14, restimulated with HDM extract (5 μg/mL), individual peptides (10 μg/mL) or peptide pools (5 μg/mL) and screened for […]/IL-5-production by ELISPOT. Criteria for positivity were 100 or 20 spot forming cells (SFCs) per 10^6 PBMCs for peptide pools or single peptides, respectively, p<0.05, and a stimulation index >2.

Row | Substance | SFC/donor [SFC/donor] | % responder [%]
1 | 147 (LGMQICFDMIFKTPG; Immunogenic fragment) [compound 147] | 28 | 20
2 | 148 (TWWFDEAPMLSSSQY; Immunogenic fragment) [compound 148] | 21 | 10
3 | 149 (SSSQYQMAWAFGNNV; Immunogenic fragment) [compound 149] | 12 | 10
4 | 150 (ELNSRFVYAKLRGAF; Immunogenic fragment) [compound 150] | 21 | 5
5 | 151 (FVYAKLRGAFSESTA; Immunogenic fragment) [compound 151] | 9 | 5
6 | 152 (LRGAFSESTAVYPSA; Immunogenic fragment) [compound 152] | 5 | 5
7 | DWRNLYPRKYAFALP (Immunogenic fragment) [Peptide 186, fragment of A0023 Der f] | 64 | 5
8 | EARENYITFTEPFMI (Immunogenic fragment) [Peptide 179, fragment of A0023 Der f/p] | 5 | 5
9 | EPFMINQLAALIRRE (Immunogenic fragment) [Peptide 181, fragment of A0023 Der f/p] | 40 | 10
10 | GYAFIMESSSAEHEI (Immunogenic fragment) [Peptide 184, fragment of A0023 Der f] | 16 | 10
11 | HKPIILGTLRNGATN (Immunogenic fragment) [Peptide 182, fragment of A0023 Der f] | 175 | 10
12 | KDSQYLQHFNNAIKQ (Immunogenic fragment) [Peptide 188, fragment of A0023 Der f] | 24 | 10
13 | LGTLRNGATNHFLSK (Immunogenic fragment) [Peptide 183, fragment of A0023 Der f] | 163 | 20
14 | LQHFNNAIKQLNTED (Immunogenic fragment) [Peptide 189, fragment of A0023 Der f] | 24 | 10
15 | LTMLLDWRNLYPRKY (Immunogenic fragment) [Peptide 185, fragment of A0023 Der f] | 15 | 5
16 | SLRGVTIRNAPFLEE (Immunogenic fragment) [Peptide 178, fragment of A0023 Der f] | 42 | 10
17 | YITFTEPFMINQLAA (Immunogenic fragment) [Peptide 180, fragment of A0023 Der f/p] | 29 | 10
18 | YPRKYAFALPKDSQY (Immunogenic fragment) [Peptide 187, fragment of A0023 Der f] | 25 | 10
